As a reminder, the IC50 is the midpoint of a concentration-inhibition curve.

T1 sequence (O00763 144-2458): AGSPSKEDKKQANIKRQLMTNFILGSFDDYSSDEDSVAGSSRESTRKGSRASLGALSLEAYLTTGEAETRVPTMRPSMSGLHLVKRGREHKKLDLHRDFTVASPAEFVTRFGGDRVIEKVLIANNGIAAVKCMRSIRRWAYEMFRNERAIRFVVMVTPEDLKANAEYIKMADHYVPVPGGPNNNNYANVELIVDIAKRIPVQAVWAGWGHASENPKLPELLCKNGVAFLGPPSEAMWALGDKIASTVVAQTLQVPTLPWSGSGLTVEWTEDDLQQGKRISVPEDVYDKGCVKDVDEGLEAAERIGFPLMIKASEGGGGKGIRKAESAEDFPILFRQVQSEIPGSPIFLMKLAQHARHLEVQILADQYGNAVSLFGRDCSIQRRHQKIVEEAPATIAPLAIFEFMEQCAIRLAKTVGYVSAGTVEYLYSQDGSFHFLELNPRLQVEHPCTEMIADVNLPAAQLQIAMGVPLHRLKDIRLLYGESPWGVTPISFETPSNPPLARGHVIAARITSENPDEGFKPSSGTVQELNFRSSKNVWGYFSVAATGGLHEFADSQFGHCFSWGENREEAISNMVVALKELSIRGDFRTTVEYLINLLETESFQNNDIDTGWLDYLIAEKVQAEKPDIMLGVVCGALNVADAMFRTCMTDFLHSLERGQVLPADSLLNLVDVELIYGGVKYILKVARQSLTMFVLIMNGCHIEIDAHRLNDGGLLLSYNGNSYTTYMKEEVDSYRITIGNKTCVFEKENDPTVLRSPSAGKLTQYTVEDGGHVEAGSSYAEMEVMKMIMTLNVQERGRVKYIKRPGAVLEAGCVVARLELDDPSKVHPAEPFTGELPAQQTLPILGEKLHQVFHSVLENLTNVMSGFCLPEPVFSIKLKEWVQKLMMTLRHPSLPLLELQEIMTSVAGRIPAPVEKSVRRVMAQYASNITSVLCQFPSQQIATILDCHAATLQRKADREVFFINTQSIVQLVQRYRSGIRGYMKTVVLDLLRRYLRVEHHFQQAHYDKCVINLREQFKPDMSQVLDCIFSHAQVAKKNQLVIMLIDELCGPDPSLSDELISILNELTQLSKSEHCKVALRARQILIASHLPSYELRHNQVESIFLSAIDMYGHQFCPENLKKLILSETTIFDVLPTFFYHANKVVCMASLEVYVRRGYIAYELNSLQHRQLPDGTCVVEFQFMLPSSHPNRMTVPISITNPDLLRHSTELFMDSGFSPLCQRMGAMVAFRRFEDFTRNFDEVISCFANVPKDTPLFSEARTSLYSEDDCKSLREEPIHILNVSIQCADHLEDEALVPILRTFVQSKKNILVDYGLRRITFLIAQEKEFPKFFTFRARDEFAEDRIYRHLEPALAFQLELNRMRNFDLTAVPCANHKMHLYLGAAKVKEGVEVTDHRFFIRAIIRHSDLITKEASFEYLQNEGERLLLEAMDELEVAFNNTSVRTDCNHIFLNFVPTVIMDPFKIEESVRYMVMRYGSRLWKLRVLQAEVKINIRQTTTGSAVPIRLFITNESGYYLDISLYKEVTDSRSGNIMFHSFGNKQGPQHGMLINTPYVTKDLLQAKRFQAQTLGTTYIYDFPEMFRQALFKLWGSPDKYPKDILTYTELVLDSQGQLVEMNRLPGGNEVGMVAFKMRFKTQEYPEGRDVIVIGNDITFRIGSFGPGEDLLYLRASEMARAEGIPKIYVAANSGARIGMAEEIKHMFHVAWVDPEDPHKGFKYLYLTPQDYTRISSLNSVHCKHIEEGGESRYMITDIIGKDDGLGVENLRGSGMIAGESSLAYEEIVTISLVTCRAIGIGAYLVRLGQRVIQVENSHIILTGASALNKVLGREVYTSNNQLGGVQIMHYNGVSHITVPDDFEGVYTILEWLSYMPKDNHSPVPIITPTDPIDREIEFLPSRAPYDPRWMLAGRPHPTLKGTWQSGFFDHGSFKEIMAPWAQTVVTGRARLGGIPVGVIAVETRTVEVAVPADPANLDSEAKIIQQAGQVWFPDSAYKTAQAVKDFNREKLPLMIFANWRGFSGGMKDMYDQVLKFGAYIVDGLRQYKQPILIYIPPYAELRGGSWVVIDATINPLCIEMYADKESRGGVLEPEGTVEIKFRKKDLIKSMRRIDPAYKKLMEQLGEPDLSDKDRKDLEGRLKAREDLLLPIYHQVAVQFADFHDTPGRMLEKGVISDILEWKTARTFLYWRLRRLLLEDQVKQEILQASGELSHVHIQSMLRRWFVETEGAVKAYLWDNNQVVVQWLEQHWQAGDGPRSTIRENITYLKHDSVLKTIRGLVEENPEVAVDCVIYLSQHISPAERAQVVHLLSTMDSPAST

This assay concerns the target T1, human acetyl-CoA carboxylase 2 (ACC2) (Homo sapiens, UniProt O00763).
T1 construct: The cDNA encoding amino acids 144 to 2458 of human acetyl-CoA carboxylase 2; made in house; host or cells: Sf9 insect cells (baculovirus, pFastBac1)
Put plainly: Acetyl-CoA carboxylase enzyme assay (malonyl-CoA formation by LC/MS/MS). The class given is biochemical. To be noted: recombinant human ACC2 (aa 144-2458); read-out: IC50 ACC2. A digest of the protocol:
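Malonyl-CoA formation was read by LC/MS/MS MRM against a [13C3]-malonyl-CoA internal standard, after acetic acid quench. The enzyme was baculovirus/Sf9-expressed human ACC2 residues 144–2458, given 15 minutes room-temperature compound preincubation in HEPES pH 7.5 buffer with MgCl2, citrate and DTT. Substrate solution held 50 μM acetyl-CoA, 120 μM ATP and 2 mM KHCO3.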
As to `CC1CN(C(=O)[C@H]2CC[C@H](NS(=O)(=O)c3ccc4[nH]c(-c5ccccc5)nc4c3)CC2)CC(C)O1` (some centres unmarked) [Example 620, N-((1r,4r)-4-(2,6-dimethylmorpholine-4-carbonyl)cyclohexyl)-2-phenyl-1H-benzo[d]imidazole-5-sulfonamide], the IC50 was 0.058 µM.

With `C[C@@H](NC(=O)[C@H]1CC[C@H](NS(=O)(=O)c2ccc3c(c2)NC(=O)CC3(C)C)CC1)c1ccc(F)cc1` [Example 195, (1r,4R)-4-(4,4-dimethyl-2-oxo-1,2,3,4-tetrahydroquinoline-7-sulfonamido)-N-((R)-1-(4-fluorophenyl)ethyl)cyclohexanecarboxamide], the IC50 is 0.335 µM.

Regarding `Cc1nc2cc(S(=O)(=O)N[C@H]3CC[C@H](c4nnc(C(C)(C)C)o4)CC3)ccc2[nH]1` [Example 615, N-((1r,4r)-4-(5-tert-butyl-1,3,4-oxadiazol-2-yl)cyclohexyl)-2-methyl-1H-benzo[d]imidazole-5-sulfonamide], the IC50 came to 11.5 µM.

Take `COc1ccc(Nc2nc3cc(S(=O)(=O)N[C@H]4CC[C@H](C(=O)OC(C)C)CC4)ccc3[nH]2)cc1` [Example 555, (1r,4r)-isopropyl 4-(2-(4-methoxyphenylamino)-1H-benzo[d]imidazole-5-sulfonamido)cyclohexanecarboxylate]: the IC50 is 0.03 µM.

For `COC(=O)C1CCc2ccc(S(=O)(=O)N[C@H]3CC[C@H](C(=O)N[C@H](C)c4ccc(F)cc4)CC3)cc2N1C` (stereo partly drawn) [Example 224, methyl 7-(N-((1R,4r)-4-((R)-1-(4-fluorophenyl)ethylcarbamoyl)cyclohexyl)sulfamoyl)-1-methyl-1,2,3,4-tetrahydroquinoline-2-carboxylate], the IC50 stood at 0.06 µM.

Take `COC(=O)CCc1ccc(-c2cc3ccc(S(=O)(=O)N[C@H]4CC[C@H](C(=O)N5CCCC5C(C)(C)C)CC4)cc3n2C)cc1` (some centres unmarked) [Example 394, methyl 3-(4-(6-(N-((1r,4r)-4-(2-tert-butylpyrrolidine-1-carbonyl)cyclohexyl)sulfamoyl)-1-methyl-1H-indol-2-yl)phenyl)propanoate]: the IC50 is 0.015 µM.

Take `C[C@@H](NC(=O)[C@H]1CC[C@H](NS(=O)(=O)c2ccc3nc(-c4cccc(C(=O)O)c4)ccc3c2)CC1)c1ccc(F)cc1` [Example 249, 3-(6-(N-((1R,4r)-4-((R)-1-(4-fluorophenyl)ethylcarbamoyl)cyclohexyl)sulfamoyl)quinolin-2-yl)benzoic acid]: the IC50 was 0.01 µM.

Turning to `C[C@H](NC(=O)[C@H]1CC[C@H](NS(=O)(=O)c2ccc3ccccc3c2)CC1)c1cccnc1` [Example 683, (1r,4S)-4-(naphthalene-2-sulfonamido)-N-((S)-1-(pyridin-3-yl)ethyl)cyclohexanecarboxamide], the IC50 is > 35 µM.

Consider `CC(C)(C)OC(=O)N1CCN(C(=O)[C@H]2CC[C@H](NS(=O)(=O)c3ccc4cc(-c5ccccc5C(F)(F)F)[nH]c4c3)CC2)[C@@H](c2ccccc2)C1` [Example 328, (S)-tert-butyl 3-phenyl-4-((1r,4S)-4-(2-(2-(trifluoromethyl)phenyl)-1H-indole-6-sulfonamido)cyclohexanecarbonyl)piperazine-1-carboxylate], for which the IC50 came out at 0.055 µM.

Regarding `Cc1cc(CO)ccc1-c1cc2ccc(S(=O)(=O)N[C@H]3CC[C@H](C(=O)N4CCN(C(=O)OC(C)(C)C)C[C@@H]4c4ccccc4)CC3)cc2[nH]1` [Example 309, (S)-tert-butyl 4-((1r,4S)-4-(2-(4-(hydroxymethyl)-2-methylphenyl)-1H-indole-6-sulfonamido)cyclohexanecarbonyl)-3-phenylpiperazine-1-carboxylate], the IC50 amounted to 0.02 µM.

On to `Cn1c(C2CC2)c(C#N)c2ccc(S(=O)(=O)N[C@H]3CC[C@H](C(=O)N4CCOCC4)CC3)cc21` [Example 23, 3-cyano-2-cyclopropyl-1-methyl-N-((1r,4r)-4-(morpholine-4-carbonyl)cyclohexyl)-1H-indole-6-sulfonamide], for which the IC50 amounted to 0.15 µM.

(Values after patent US8697739B2, “Bicyclic acetyl-CoA carboxylase inhibitors and uses thereof” (Novartis AG, priority 2010, dated 2014).)
